Measurements from patent publication US9140689B2, “Methods of determining susceptibility of tumors to tyrosine kinase inhibitors” (Translational Genomics Research Institute, priority 2010, dated 2015).

Assays:
Type in all cases: cell-based, murine
[1] = test system: BaF3/FGFR2b E719G mutation variant cells; experiment: BaF3/FGFR2b TKI resistance test, E719G variant alone
From the text: Genomic DNA was isolated from the BaF3.FGFR2b colonies selected in the […]-resistance screen. Exons encoding the intracellular domain of FGFR2b were amplified and sequencing performed in two directions. Mutations in the intracellular domain of FGFR2b were identified in 26 of the 63 (41%) […] resistant BaF3.FGFR2b clones. Among the 26 FGFR2b mutations, eleven different mutation variants were detected (Table 1). The eleven different mutation variants are: M536I, M538I, I548V, N550H, N550K, N550S, V565I, E566G, L618M, E719G, and Y770IfsX14. The most commonly mutated codon was N550, with mutations occurring in 19 of the 26 (73%) resistant clones. In addition, E719G mutation variant was identified in a clone with a N550H mutation; […]. Similar tests were performed with the other 10 FGFR2b mutation variants. The majority of the mutations identified in this drug resistance screen result in activation of FGFR2. […]. The FGFR2 mutations resistance to another TKI PD173074 were also tested. […] The receptor activation of FGFR2 mutants and wildtype were measured and compared in the presence of FGF ligand. […]

[2] = test system: BaF3/FGFR2b N550K mutation variant cells; experiment: BaF3/FGFR2b cell viability (ViaLight assay), N550K variant
Description: (§1) The BaF3 cell line is an IL-3 dependent murine pro-B cell line that is commonly employed to model TKI resistant mutations. BaF3 cells are made dependent on a specific oncogenic tyrosine kinase, and are cultured in the presence of a kinase inhibitor against that specific kinase, and resistant colonies can be screened for drug resistant mutations. This approach effectively reproduced the pattern and relative abundance of Bcr-Abl mutations seen clinically in imatinib-resistant patients (Von Bubnoff, N. et al, Blood. 2005 105:1652-1659)
(§2) BaF3/FGFR2b wildtype and N550K mutation variant cells were plated at a density of 10,000 cells/well in a 96-well plate. […] (Selleck Chemicals) or PD173074 (Calbiochem) was added in half-log dilutions in the absence of IL3 and in the presence of 1 nM FGF10 and 5 μg/mL heparin. After 72 hours, cell viability was measured using the ViaLight assay from Lonza (Visp, CH). The IC50 values shown in FIG. 1 were normalized to DMSO control and data were analyzed with Prism software. […].

[3] = test system: BaF3/FGFR2b wildtype cells; experiment: BaF3/FGFR2b cell viability (ViaLight assay), wildtype; settings: Mus musculus, BaF3, 72 h, read-out: IC50 value in BaF3/FGFR2b wildtype
Description: as §1, §2

Structure (SMILES): CCN(CC)CCCCNc1ncc2cc(-c3cc(OC)cc(OC)c3)c(NC(=O)NC(C)(C)C)nc2n1 [PD173074]
- resistance conferred by E719G mutation alone [1]: did not induce resistance
- fold difference of IC50, N550K versus wildtype ([2]; BaF3/FGFR2b N550K vs wildtype): over 170 fold
- IC50 ([2]; Mus musculus, BaF3, 72 h, read-out: IC50 value in N550K resistance cells): 776 nM
- IC50 [3]: 4.5 nM
